Assay [1] has as its system hY1-CHO. The experiment in a line: Non-specific binding of agonists, saturation and time course, hY1-CHO. As to conditions: hyperbolic fit; 50 pM tracer at 100 nM unlabeled peptide over 3, 6, 10, 20 and 30 min at 25 °C.
Assay [2] addresses T1, human Y5 receptor (Homo sapiens, UniProt Q15761).
T1 sequence (Q15761 1-445): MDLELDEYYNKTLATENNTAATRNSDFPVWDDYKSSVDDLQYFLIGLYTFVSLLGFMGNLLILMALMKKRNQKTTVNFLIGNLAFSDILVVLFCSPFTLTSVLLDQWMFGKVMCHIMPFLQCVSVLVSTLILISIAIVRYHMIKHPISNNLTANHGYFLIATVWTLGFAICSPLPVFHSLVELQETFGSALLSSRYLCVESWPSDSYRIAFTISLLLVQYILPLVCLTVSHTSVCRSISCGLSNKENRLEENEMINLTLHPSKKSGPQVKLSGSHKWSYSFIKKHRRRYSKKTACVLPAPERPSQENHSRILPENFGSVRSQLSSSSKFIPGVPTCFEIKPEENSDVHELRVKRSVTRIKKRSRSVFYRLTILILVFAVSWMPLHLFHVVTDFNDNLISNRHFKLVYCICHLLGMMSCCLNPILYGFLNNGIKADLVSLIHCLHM
Particulars: uncompeted specific binding at 50 pM [125I]agonist as percent of the specific binding of [125I]hNPY; human Y5 in HEK293 cells; ± S.E.M.; SEM.

The text below walks through data of paper PMC3025077 (Peptides, 2010).

In the case of “human (Leu^31,Pro^34) peptide YY [LP-hPYY]”, the “Half-period of equilibration of non-specific binding, hY1-CHO” value in assay [1] is given as 1.72 ± 0.11 min. The “% of NPY binding, Y5” value in assay [2] was found to be 96.5 ±16%.
